Experimental data: patent US4963542A, “Cephalosporin derivatives” (Takeda Chemical Industries, Ltd., priority 1976, dated 1990)

What was measured:
Serratia marcescens TN24 = assay: Minimal inhibitory concentration, agar serial dilution; type: cell-based; conditions: TSA, inoculum 10^7 /ml
From the text: (§1) (a) Minimal inhibitory concentrations (Table 1 and 2)
(§2) Method: Agar serial dilution

[1] = test system: Klebsiella pneumoniae GN-3835; assay: as above; type: cell-based; conditions: TSA, inoculum 10^7 /ml
From the text: as §1, §2

Escherichia coli T-7 = assay: as above; type: cell-based; conditions: TSA, inoculum 10^7 /ml
From the text: as §1, §2

[2] = test system: Proteus vulgaris IFO 3988; assay: as above; type: cell-based; conditions: TSA, inoculum 10^7 /ml
From the text: as §1, §2

Proteus morganii IFO3168 = assay: as above; type: cell-based; conditions: TSA, inoculum 10^7 /ml
From the text: as §1, §2

[3] = test system: Staphylococcus aureus 1840; assay: as above; type: cell-based; conditions: TSA, inoculum 10^7 /ml
From the text: as §1, §2

[4] = test system: Escherichia coli NIHJ JC-2; assay: as above; type: cell-based; conditions: TSA, inoculum 10^7 /ml
From the text: as §1, §2

[5] = test system: Citrobacter freundii GN1706; assay: as above; type: cell-based; conditions: TSA, inoculum 10^7 /ml
From the text: as §1, §2

[6] = test system: Staphylococcus aureus 209P; assay: as above; type: cell-based; conditions: TSA, inoculum 10^7 /ml
From the text: as §1, §2

[7] = test system: Citrobacter freundii GN99; assay: as above; type: cell-based; conditions: TSA, inoculum 10^7 /ml
From the text: as §1, §2

Proteus vulgaris GN4413 = assay: as above; type: cell-based; conditions: TSA, inoculum 10^7 /ml
From the text: as §1, §2

[8] = test system: Enterobacter cloacae TN1282; assay: as above; type: cell-based; conditions: TSA, inoculum 10^7 /ml
From the text: as §1, §2

[9] = test system: Serratia marcescens IFO 12648; assay: as above; type: cell-based; conditions: TSA, inoculum 10^7 /ml
From the text: as §1, §2

Klebsiella pneumoniae DT = assay: as above; type: cell-based; conditions: TSA, inoculum 10^7 /ml
From the text: as §1, §2

Proteus rettgeri GN4733 = assay: as above; type: cell-based; conditions: TSA, inoculum 10^7 /ml
From the text: as §1, §2

Proteus mirabilis GN4359 = assay: as above; type: cell-based; conditions: TSA, inoculum 10^7 /ml
From the text: as §1, §2

Proteus rettgeri TN338 = assay: as above; type: cell-based; conditions: TSA, inoculum 10^7 /ml
From the text: as §1, §2

Escherichia coli 0-111 [10] = assay: as above; type: cell-based; conditions: TSA, inoculum 10^7 /ml
From the text: as §1, §2

Escherichia coli 0-111 [11] = assay: Therapeutic effects on infected mice; type: in vivo, Male mouse, ICR/SLC; conditions: Escherichia coli, 0111, sc, 168 h, s.c. single dose immediately after intraperitoneal infection, 7 days observation
Procedure: The therapeutic efficacies of several representative compounds [I] of this invention and of cephaloridine on infected mice are also set forth in the tables.
(b) Therapeutic effects on infected mice (Table 3 and Table 4)
Test animal: Male mouse, ICR/SLC
A group of five animals was employed per drug.
Route of infection: Intraperitoneal
Infectious bacteria: Escherichia coli 0-111
Period of observation: 7 days
Method of administration: Test compound (1 mg, 10 mg, 100 mg or 200 mg) was dissolved in sterile saline solution (100 ml) and 0.2 ml of the solution was administered subcutaneously as a single dose immediately after infection. Two fold dilutions of each solution were administered to five groups of 5 mice each.

| SMILES | Minimal inhibitory concentration (MIC) (Serratia marcescens TN24) | Minimal inhibitory concentration (MIC) [1] | Minimal inhibitory concentration (MIC) (Escherichia coli T-7) | Minimal inhibitory concentration (MIC) [2] | Minimal inhibitory concentration (MIC) (Proteus morganii IFO3168) | Minimal inhibitory concentration (MIC) [3] | Minimal inhibitory concentration (MIC) [4] | Minimal inhibitory concentration (MIC) [5] | Minimal inhibitory concentration (MIC) [6] | Minimal inhibitory concentration (MIC) [7] | Minimal inhibitory concentration (MIC) (Proteus vulgaris GN4413) | Minimal inhibitory concentration (MIC) [8] | Minimal inhibitory concentration (MIC) [9] | Minimal inhibitory concentration (MIC) (Klebsiella pneumoniae DT) | Minimal inhibitory concentration (MIC) (Proteus rettgeri GN4733) | Minimal inhibitory concentration (MIC) (Proteus mirabilis GN4359) | Minimal inhibitory concentration (MIC) (Proteus rettgeri TN338) | Minimal inhibitory concentration (MIC) (Escherichia coli 0-111 [10]) | ED50 (Escherichia coli 0-111 [11]; Table 3) | ED50 (Escherichia coli 0-111 [11]; Table 4) |
| --- | --- | --- | --- | --- | --- | --- | --- | --- | --- | --- | --- | --- | --- | --- | --- | --- | --- | --- | --- | --- |
| CC(=O)OCC1=C(C(=O)O)N2C(=O)C(NC(=O)/C(=N\O)c3csc(=N)[nH]3)C2SC1 (stereo not drawn) [Example 5, sodium 7-[2-(2-imino-4-thiazolin-4-yl)-2-hydroxyimino-acetamido]-3-acetoxymethyl-3-cephem-4-carboxylate (syn-isomer)] | 1.56 | 0.05 | 0.39 | 0.05 | 0.20 | 0.39 | 0.024 | 0.10 | 0.39 | 0.05 | 12.5 | 6.25 | 6.25 | ≤ 0.012 | 0.024 | 0.05 | ≤ 0.012 | ≤ 0.012 | 0.033 mg/kg | – |
| Cn1nnnc1SCC1=C(C(=O)O)N2C(=O)C(NC(=O)/C(=N\O)c3csc(=N)[nH]3)C2SC1 (stereo not drawn) [Example 12, sodium 7-[2-(2-imino-4-thiazolin-4-yl)-2-hydroxyimino-acetamido]-3-(1-methyl-1H-tetrazol-5-yl)thiomethyl-3-cephem-4-carboxylate (syn-isomer)] | 0.39 | 0.10 | 0.78 | 0.05 | 0.024 | 0.78 | 0.05 | 0.10 | 0.39 | 0.05 | 6.25 | 1.56 | 0.78 | 0.024 | 0.05 | 0.10 | ≤ 0.012 | ≤ 0.012 | 0.028 mg/kg | – |
| Cn1cnnc1SCC1=C(C(=O)O)N2C(=O)C(NC(=O)/C(=N\O)c3csc(=N)[nH]3)C2SC1 (stereo not drawn) [Example 15, sodium 7-[2-(2-imino-4-thiazolin-4-yl)-2-hydroxyimino-acetamido]-3-(4-methyl-1,2,4-triazol-3-yl)thiomethyl-3-cephem-4-carboxylate (syn-isomer)] | 0.78 | 0.05 | 0.39 | 0.05 | 0.024 | 0.78 | 0.024 | 0.05 | 0.78 | 0.05 | 3.13 | 1.56 | 0.78 | 0.024 | 0.10 | 0.10 | ≤ 0.012 | ≤ 0.012 | – | 0.016 mg/kg |
| Cc1nnc(SCC2=C(C(=O)O)N3C(=O)C(NC(=O)/C(=N\O)c4csc(=N)[nH]4)C3SC2)s1 (stereo not drawn) [Example 16, sodium 7-[2-(2-imino-4-thiazolin-4-yl)-2-hydroxyimino-acetamido]-3-(2-methyl-1,3,4-thiadiazol-5-yl)thiomethyl-3-cephem-4-carboxylate (syn-isomer)] | 0.78 | 0.20 | 1.56 | 0.10 | 0.05 | 0.78 | 0.10 | 0.20 | 0.39 | 0.10 | 6.25 | 6.25 | 3.13 | 0.05 | 0.10 | 0.20 | ≤ 0.012 | 0.024 | – | 0.035 mg/kg |
